Data as given in the supplement of paper PMC10307832.

How the values were obtained:
Experiment in all cases: relative viability (nuclei count vs DMSO), 5 days (fraction); higher = more cells survive
NCI-H1792 = tested on: NCI-H1792
Summary of the method: (§1)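 Values are medians from duplicate plates. Each reflects relative viability, defined as the nuclei count of treated wells over that of vehicle wells. Lung cancer cell lines in 1536-well plates were pin-tool dosed one day after seeding with one drug alone or with a fixed anchor-drug dose plus five library-drug doses (not always all listed) in √10 steps, then fixed, stained and imaged at 4× after 5 days.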

LXF-289 = tested on: LXF-289
Summary of the method: as §1

NCI-H1734 = tested on: NCI-H1734
Summary of the method: as §1

NCI-H1755 = tested on: NCI-H1755
Summary of the method: as §1

HOP-62 = tested on: HOP-62
Summary of the method: as §1

NCI-H2347 = tested on: NCI-H2347
Summary of the method: as §1

NCI-H460 = tested on: NCI-H460
Summary of the method: as §1

LC-2-ad = tested on: LC-2-ad
Summary of the method: as §1

RERF-LC-KJ = tested on: RERF-LC-KJ
Summary of the method: as §1

SK-LU-1 = tested on: SK-LU-1
Summary of the method: as §1

NCI-H647 = tested on: NCI-H647
Summary of the method: as §1

NCI-H358 = tested on: NCI-H358
Summary of the method: as §1

NCI-H2228 = tested on: NCI-H2228
Summary of the method: as §1

HCC-78 = tested on: HCC-78
Summary of the method: as §1

A-427 = tested on: A-427
Summary of the method: as §1

NCI-H522 = tested on: NCI-H522
Summary of the method: as §1

NCI-H2126 = tested on: NCI-H2126
Summary of the method: as §1

HCC-15 = tested on: HCC-15
Summary of the method: as §1

NCI-H1915 = tested on: NCI-H1915
Summary of the method: as §1

PC-3 [JPC-3] = tested on: PC-3 [JPC-3]
Summary of the method: as §1

SW 1573 = tested on: SW 1573
Summary of the method: as §1

NCI-H2342 = tested on: NCI-H2342
Summary of the method: as §1

LOU-NH91 = tested on: LOU-NH91
Summary of the method: as §1

NCI-H1975 = tested on: NCI-H1975
Summary of the method: as §1

COc1cc(N2CCC(C(N)=O)CC2)ccc1Nc1nc(N)c(Cl)c(Nc2ccccc2S(=O)(=O)C(C)C)n1 [HG-5-88-01] + CC(=O)Nc1cccc(-n2c(=O)n(C3CC3)c(=O)c3c(Nc4ccc(I)cc4F)n(C)c(=O)c(C)c32)c1 [Trametinib] (partner 0.02 µM)
relative viability (NCI-H1792; first compound 0.04 µM): 0.444
relative viability (NCI-H1792; first compound 0.1265 µM): 0.535
relative viability (NCI-H1792; first compound 0.4 µM): 0.401
relative viability (NCI-H1792; first compound 1.265 µM): 0.432
relative viability (NCI-H1792; first compound 4 µM): 0.576
relative viability (LXF-289; first compound 0.04 µM): 0.672
relative viability (LXF-289; first compound 0.1265 µM): 0.692
relative viability (LXF-289; first compound 0.4 µM): 0.511
relative viability (LXF-289; first compound 1.265 µM): 0.677
relative viability (LXF-289; first compound 4 µM): 0.672
relative viability (NCI-H1734; first compound 0.04 µM): 0.669
relative viability (NCI-H1734; first compound 0.1265 µM): 0.755
relative viability (NCI-H1734; first compound 0.4 µM): 0.643
relative viability (NCI-H1734; first compound 1.265 µM): 0.623
relative viability (NCI-H1734; first compound 4 µM): 0.621
relative viability (NCI-H1755; first compound 0.04 µM): 0.765
relative viability (NCI-H1755; first compound 0.1265 µM): 0.72
relative viability (NCI-H1755; first compound 0.4 µM): 0.773
relative viability (NCI-H1755; first compound 1.265 µM): 0.78
relative viability (NCI-H1755; first compound 4 µM): 0.792
relative viability (HOP-62; first compound 0.04 µM): 0.391
relative viability (HOP-62; first compound 0.1265 µM): 0.411
relative viability (HOP-62; first compound 0.4 µM): 0.345
relative viability (HOP-62; first compound 1.265 µM): 0.317
relative viability (HOP-62; first compound 4 µM): 0.383
relative viability (NCI-H2347; first compound 0.04 µM): 0.324
relative viability (NCI-H2347; first compound 0.1265 µM): 0.284
relative viability (NCI-H2347; first compound 0.4 µM): 0.227
relative viability (NCI-H2347; first compound 1.265 µM): 0.229
relative viability (NCI-H2347; first compound 4 µM): 0.247
relative viability (NCI-H460; first compound 0.04 µM): 0.131
relative viability (NCI-H460; first compound 0.1265 µM): 0.124
relative viability (NCI-H460; first compound 0.4 µM): 0.13
relative viability (NCI-H460; first compound 1.265 µM): 0.0779
relative viability (NCI-H460; first compound 4 µM): 0.123
relative viability (LC-2-ad; first compound 0.04 µM): 0.934
relative viability (LC-2-ad; first compound 0.1265 µM): 0.86
relative viability (LC-2-ad; first compound 0.4 µM): 0.865
relative viability (LC-2-ad; first compound 1.265 µM): 0.896
relative viability (LC-2-ad; first compound 4 µM): 0.993
relative viability (RERF-LC-KJ; first compound 0.04 µM): 0.79
relative viability (RERF-LC-KJ; first compound 0.1265 µM): 0.902
relative viability (RERF-LC-KJ; first compound 0.4 µM): 0.744
relative viability (RERF-LC-KJ; first compound 1.265 µM): 0.713
relative viability (RERF-LC-KJ; first compound 4 µM): 0.714
relative viability (SK-LU-1; first compound 0.04 µM): 0.394
relative viability (SK-LU-1; first compound 0.1265 µM): 0.388
relative viability (SK-LU-1; first compound 0.4 µM): 0.451
relative viability (SK-LU-1; first compound 1.265 µM): 0.474
relative viability (SK-LU-1; first compound 4 µM): 0.363
relative viability (NCI-H647; first compound 0.04 µM): 0.436
relative viability (NCI-H647; first compound 0.1265 µM): 0.444
relative viability (NCI-H647; first compound 1.265 µM): 0.488
relative viability (NCI-H647; first compound 4 µM): 0.527
relative viability (NCI-H358; first compound 0.04 µM): 0.123
relative viability (NCI-H358; first compound 0.1265 µM): 0.124
relative viability (NCI-H358; first compound 0.4 µM): 0.131
relative viability (NCI-H358; first compound 1.265 µM): 0.106
relative viability (NCI-H358; first compound 4 µM): 0.105
relative viability (NCI-H2228; first compound 0.04 µM): 0.214
relative viability (NCI-H2228; first compound 0.1265 µM): 0.108
relative viability (NCI-H2228; first compound 0.4 µM): 0.268
relative viability (NCI-H2228; first compound 1.265 µM): 0.174
relative viability (NCI-H2228; first compound 4 µM): 0.231
relative viability (HCC-78; first compound 0.04 µM): 0.737
relative viability (HCC-78; first compound 0.1265 µM): 0.455
relative viability (HCC-78; first compound 0.4 µM): 0.492
relative viability (HCC-78; first compound 1.265 µM): 0.289
relative viability (HCC-78; first compound 4 µM): 0.348
relative viability (A-427; first compound 0.04 µM): 0.8
relative viability (A-427; first compound 0.1265 µM): 0.754
relative viability (A-427; first compound 0.4 µM): 0.749
relative viability (A-427; first compound 1.265 µM): 0.662
relative viability (A-427; first compound 4 µM): 0.487
relative viability (NCI-H522; first compound 0.04 µM): 0.683
relative viability (NCI-H522; first compound 0.1265 µM): 0.784
relative viability (NCI-H522; first compound 0.4 µM): 0.695
relative viability (NCI-H522; first compound 1.265 µM): 0.705
relative viability (NCI-H522; first compound 4 µM): 0.636
relative viability (NCI-H2126; first compound 0.04 µM): 0.592
relative viability (NCI-H2126; first compound 0.1265 µM): 0.564
relative viability (NCI-H2126; first compound 0.4 µM): 0.557
relative viability (NCI-H2126; first compound 1.265 µM): 0.543
relative viability (NCI-H2126; first compound 4 µM): 0.558
relative viability (HCC-15; first compound 0.04 µM): 0.372
relative viability (HCC-15; first compound 0.1265 µM): 0.359
relative viability (HCC-15; first compound 0.4 µM): 0.36
relative viability (HCC-15; first compound 1.265 µM): 0.314
relative viability (HCC-15; first compound 4 µM): 0.251
relative viability (NCI-H1915; first compound 0.04 µM): 0.327
relative viability (NCI-H1915; first compound 0.1265 µM): 0.338
relative viability (NCI-H1915; first compound 0.4 µM): 0.353
relative viability (NCI-H1915; first compound 1.265 µM): 0.313
relative viability (NCI-H1915; first compound 4 µM): 0.317
relative viability (PC-3 [JPC-3]; first compound 0.04 µM): 0.708
relative viability (PC-3 [JPC-3]; first compound 0.1265 µM): 0.738
relative viability (PC-3 [JPC-3]; first compound 0.4 µM): 0.684
relative viability (PC-3 [JPC-3]; first compound 1.265 µM): 0.448
relative viability (PC-3 [JPC-3]; first compound 4 µM): 0.361
relative viability (SW 1573; first compound 0.04 µM): 0.598
relative viability (SW 1573; first compound 0.1265 µM): 0.533
relative viability (SW 1573; first compound 0.4 µM): 0.581
relative viability (SW 1573; first compound 1.265 µM): 0.464
relative viability (SW 1573; first compound 4 µM): 0.52
relative viability (NCI-H2342; first compound 0.04 µM): 0.846
relative viability (NCI-H2342; first compound 0.1265 µM): 0.939
relative viability (NCI-H2342; first compound 0.4 µM): 0.865
relative viability (NCI-H2342; first compound 4 µM): 0.969
relative viability (LOU-NH91; first compound 0.04 µM): 0.74
relative viability (LOU-NH91; first compound 0.1265 µM): 0.787
relative viability (LOU-NH91; first compound 0.4 µM): 0.602
relative viability (LOU-NH91; first compound 1.265 µM): 0.567
relative viability (LOU-NH91; first compound 4 µM): 0.579
relative viability (NCI-H1975; first compound 0.04 µM): 0.4
relative viability (NCI-H1975; first compound 0.1265 µM): 0.446
relative viability (NCI-H1975; first compound 0.4 µM): 0.331
relative viability (NCI-H1975; first compound 1.265 µM): 0.329
relative viability (NCI-H1975; first compound 4 µM): 0.247
